From ChEMBL document CHEMBL1136964, “Nicotinic agonist binding site mapped by methionine- and tyrosine-scanning coupled with azidochloropyridinyl photoaffinity labeling” (J Med Chem, 2009)

Columns and labels:
Assay type in all cases: cell-based
[1] = test system: HEK293S; assay: Binding affinity to Aplysia californica AchBP S114M, M116L mutant expressed in HEK293S cells assessed as specific photoincorporation at 46 pmol by scintillation counting
[2] = test system: HEK293S; assay: Binding affinity to Aplysia californica AchBP M116L,Y195F mutant expressed in HEK293S cells assessed as specific photoincorporation at 46 pmol by scintillation counting
[3] = test system: HEK293S; assay: Binding affinity to Aplysia californica AchBP I118M, M116L mutant expressed in HEK293S cells assessed as specific photoincorporation at 46 pmol by scintillation counting relative to wild type
[4] = test system: HEK293S; assay: Binding affinity to Aplysia californica AchBP M116L mutant expressed in HEK293S cells assessed as specific photoincorporation at 46 pmol by scintillation counting
[5] = Binding affinity to Aplysia californica AchBP I106M, M116L mutant expressed in HEK293S cells by scintillation proximity assay
[6] = test system: HEK293S; assay: Binding affinity to Aplysia californica AchBP I106M, M116L mutant expressed in HEK293S cells assessed as specific photoincorporation at 46 pmol by scintillation counting
[7] = test system: HEK293S; assay: Binding affinity to Aplysia californica AchBP I118M, M116L, Y195F mutant expressed in HEK293S cells assessed as specific photoincorporation at 46 pmol by scintillation counting
[8] = test system: HEK293S; assay: Binding affinity to Aplysia californica AchBP A107M, M116L mutant expressed in HEK293S cells assessed as specific photoincorporation at 46 pmol by scintillation counting
[9] = Binding affinity to Aplysia californica AchBP V108M mutant expressed in HEK293S cells by scintillation proximity assay
[10] = Binding affinity to Aplysia californica AchBP I106M, M116L, Y195F mutant expressed in HEK293S cells by scintillation proximity assay
[11] = Binding affinity to Aplysia californica AchBP M116L mutant expressed in HEK293S cells by scintillation proximity assay
[12] = test system: HEK293S; assay: Binding affinity to Aplysia californica AchBP I118M, M116L, Y195F mutant expressed in HEK293S cells assessed as specific photoincorporation at 46 pmol by scintillation counting relative to wild type
[13] = test system: HEK293S; assay: Binding affinity to Aplysia californica AchBP M116L mutant expressed in HEK293S cells assessed as specific photoincorporation at 46 pmol by scintillation counting relative to wild type
[14] = test system: HEK293S; assay: Binding affinity to Aplysia californica AchBP A107M mutant expressed in HEK293S cells assessed as specific photoincorporation at 46 pmol by scintillation counting
[15] = test system: HEK293S; assay: Binding affinity to Aplysia californica AchBP A107M, M116L, Y195F mutant expressed in HEK293S cells assessed as specific photoincorporation at 46 pmol by scintillation counting
[16] = test system: HEK293S; assay: Binding affinity to Aplysia californica AchBP V108M, M116L mutant expressed in HEK293S cells assessed as specific photoincorporation at 46 pmol by scintillation counting
[17] = test system: HEK293S; assay: Binding affinity to Aplysia californica AchBP A107M, M116L, Y195F mutant expressed in HEK293S cells assessed as specific photoincorporation at 46 pmol by scintillation counting relative to wild type
[18] = Binding affinity to Aplysia californica AchBP M116Y, Y195F mutant expressed in HEK293S cells by scintillation proximity assay
[19] = Binding affinity to Aplysia californica AchBP I118M mutant expressed in HEK293S cells by scintillation proximity assay
[20] = test system: HEK293S; assay: Binding affinity to Aplysia californica AchBP M116Y mutant expressed in HEK293S cells assessed as specific photoincorporation at 46 pmol by scintillation counting
[21] = Binding affinity to Aplysia californica AchBP A107M, M116L, Y195F mutant expressed in HEK293S cells by scintillation proximity assay
[22] = test system: HEK293S; assay: Binding affinity to Aplysia californica AchBP A107M, M116L mutant expressed in HEK293S cells assessed as specific photoincorporation at 46 pmol by scintillation counting relative to wild type
[23] = test system: HEK293S; assay: Binding affinity to Aplysia californica AchBP V108M mutant expressed in HEK293S cells assessed as specific photoincorporation at 46 pmol by scintillation counting
[24] = test system: HEK293S; assay: Binding affinity to Aplysia californica AchBP V108M mutant expressed in HEK293S cells assessed as specific photoincorporation at 46 pmol by scintillation counting relative to wild type
[25] = test system: HEK293S; assay: Binding affinity to Aplysia californica AchBP V108M, M116L, Y195F mutant expressed in HEK293S cells assessed as specific photoincorporation at 46 pmol by scintillation counting relative to wild type
[26] = test system: HEK293S; assay: Binding affinity to wild type Aplysia californica AchBP expressed in HEK293S cells assessed as specific photoincorporation at 46 pmol by scintillation counting
[27] = test system: HEK293S; assay: Binding affinity to Aplysia californica AchBP S114M, M116L, Y195F mutant expressed in HEK293S cells assessed as specific photoincorporation at 46 pmol by scintillation counting relative to wild type
[28] = test system: HEK293S; assay: Binding affinity to Aplysia californica AchBP S114M, M116L, Y195F mutant expressed in HEK293S cells assessed as specific photoincorporation at 46 pmol by scintillation counting
[29] = Binding affinity to Aplysia californica AchBP M116L,Y195F mutant expressed in HEK293S cells by scintillation proximity assay
[30] = test system: HEK293S; assay: Binding affinity to Aplysia californica AchBP M116Y, Y195F mutant expressed in HEK293S cells assessed as specific photoincorporation at 46 pmol by scintillation counting
[31] = Binding affinity to Aplysia californica AchBP I118M, M116L mutant expressed in HEK293S cells by scintillation proximity assay
[32] = test system: HEK293S; assay: Binding affinity to Aplysia californica AchBP M116Y mutant expressed in HEK293S cells assessed as specific photoincorporation at 46 pmol by scintillation counting relative to wild type
[33] = Binding affinity to Aplysia californica AchBP V108M, M116L mutant expressed in HEK293S cells by scintillation proximity assay
[34] = Binding affinity to Aplysia californica AchBP A107M, M116L mutant expressed in HEK293S cells by scintillation proximity assay
[35] = Binding affinity to Aplysia californica AchBP S114M, M116L, Y195F mutant expressed in HEK293S cells by scintillation proximity assay
[36] = test system: HEK293S; assay: Binding affinity to Aplysia californica AchBP S114M, M116L mutant expressed in HEK293S cells assessed as specific photoincorporation at 46 pmol by scintillation counting relative to wild type
[37] = test system: HEK293S; assay: Binding affinity to Aplysia californica AchBP A107M mutant expressed in HEK293S cells assessed as specific photoincorporation at 46 pmol by scintillation counting relative to wild type

Question: Which Activity [1] does the source give for `Clc1ccc(C2CC3CCC2N3)cn1` (racemic) [EPIBATIDINE] here?
Answer: 19%

Question: What about the Activity [2] of the same molecule?
Answer: 2%

Question: And the Activity [3]?
Answer: 55%

Question: What about the Activity [4] of the same molecule?
Answer: 35%

Question: And the Kd [5]?
Answer: 12 nM

Question: And the Activity [6]?
Answer: 26%

Question: What about the Activity [7] of the same molecule?
Answer: 4.7%

Question: And the Activity [8]?
Answer: 29%

Question: And the Kd [9]?
Answer: 7.6 nM

Question: What about the Kd [10] of the same molecule?
Answer: 29 nM

Question: And the Kd [11]?
Answer: 9 nM

Question: And the Activity [12]?
Answer: 16%

Question: What about the Activity [13] of the same molecule?
Answer: 121%

Question: And the Activity [14]?
Answer: 27%

Question: And the Activity [15]?
Answer: 3.7%

Question: What about the Activity [16] of the same molecule?
Answer: 8.1%

Question: What about the Activity [17] of the same molecule?
Answer: 13%

Question: What about the Kd [18] of the same molecule?
Answer: 115 nM

Question: And the Kd [19]?
Answer: 10 nM

Question: What about the Activity [20] of the same molecule?
Answer: 17%

Question: And the Kd [21]?
Answer: 25 nM

Question: What about the Activity [22] of the same molecule?
Answer: 100%

Question: What about the Activity [23] of the same molecule?
Answer: 9.5%

Question: What about the Activity [24] of the same molecule?
Answer: 33%

Question: And the Activity [25]?
Answer: 0%

Question: What about the Activity [26] of the same molecule?
Answer: 29%

Question: And the Activity [27]?
Answer: 13%

Question: What about the Activity [28] of the same molecule?
Answer: 3.9%

Question: And the Kd [29]?
Answer: 22 nM

Question: And the Activity [30]?
Answer: 8.7%

Question: What about the Kd [31] of the same molecule?
Answer: 5 nM

Question: What about the Activity [32] of the same molecule?
Answer: 59%

Question: What about the Kd [33] of the same molecule?
Answer: 2.9 nM

Question: And the Kd [34]?
Answer: 7.5 nM

Question: And the Kd [35]?
Answer: 24 nM

Question: And the Activity [36]?
Answer: 66%

Question: What about the Activity [37] of the same molecule?
Answer: 93%
